Results taken from patent US20260115250A1, “METHODS OF TREATING AGE-RELATED MACULAR DEGENERATION” (Character Biosciences, Inc., priority 2022, published 2026).
Ends that are not written are not given here. Peptide text beside a SMILES is read from it.

Test system: not listed separately
Experiment: DMPC solubility assay, 0.5 mM DMPC (turbidity reduction)
Type: biochemical
Settings: 3.16-100 μM peptides, 15 minutes
Experimental: In this example, peptide stocks were diluted to 200 μM in H2O (a 2× solution) and 50 μL of peptide solution was transferred in triplicate into 96-well plates. A one mM solution of 1,2-dimyristoyl-sn-glycero-3-phosphocholine (DMPC) in H2O was prepared, and using a multichannel pipet, 50 μL DMPC solution was rapidly added to the plate. Peptide and lipid solutions were incubated at room temperature for 15 minutes with a final concentration of 100 μM peptides and 0.5 mM DMPC. After 15 minutes, absorbance was read on a plate reader at 405 nm. […] Data are presented as mean+SD over two runs.
In these experiments, DMPC solubility titration curves were generated. Peptide stocks were diluted to 200 μM in H2O (a 2× solution) and serially diluted in H2O over 4 concentrations, then 50 μL of peptide solutions were distributed in triplicate into 96-well plates. A 1 mM solution of 1,2-dimyristoyl-sn-glycero-3-phosphocholine (DMPC) in H2O was prepared, and using a multichannel pipet, 50 μL DMPC solution was rapidly added to the plate. Peptide and lipid solutions were incubated at room temperature for 15 minutes with final concentrations of 3.16-100 μM peptides and 0.5 mM DMPC. After 15 minutes, absorbance was read on a plate reader at 405 nm. […] Data are presented as mean+SD over two runs. Non-linear regression was used to calculate EC50 values.

EC50 | Molecule
15.6 µM | HLRKLRKRLLRDGDDLQDRLAEYQARAKEAFDR [T-051, therapeutic peptide]

Same assay, conditions: FIGS. 2A-2D and 3A-3C

Molecule | DMPC solubilizing activity
T-014: therapeutic peptide (EQAQQIRLQAEAFQARLKSWFE) | significant activity
T-010: therapeutic peptide (RDADDLQKRLAVYQAGAREGAE) | significant activity
T-015: therapeutic peptide (LVGRQLEEFL) | did not have significant solubilizing activity
T-006: therapeutic peptide (QDEPPQSPWDRVKDLATVYVDVLKDSGRDYVSQFEGSALGKQLN) | significant activity

Target: LDLR (Homo sapiens, UniProt P01130)
Sequence (P01130 22-860): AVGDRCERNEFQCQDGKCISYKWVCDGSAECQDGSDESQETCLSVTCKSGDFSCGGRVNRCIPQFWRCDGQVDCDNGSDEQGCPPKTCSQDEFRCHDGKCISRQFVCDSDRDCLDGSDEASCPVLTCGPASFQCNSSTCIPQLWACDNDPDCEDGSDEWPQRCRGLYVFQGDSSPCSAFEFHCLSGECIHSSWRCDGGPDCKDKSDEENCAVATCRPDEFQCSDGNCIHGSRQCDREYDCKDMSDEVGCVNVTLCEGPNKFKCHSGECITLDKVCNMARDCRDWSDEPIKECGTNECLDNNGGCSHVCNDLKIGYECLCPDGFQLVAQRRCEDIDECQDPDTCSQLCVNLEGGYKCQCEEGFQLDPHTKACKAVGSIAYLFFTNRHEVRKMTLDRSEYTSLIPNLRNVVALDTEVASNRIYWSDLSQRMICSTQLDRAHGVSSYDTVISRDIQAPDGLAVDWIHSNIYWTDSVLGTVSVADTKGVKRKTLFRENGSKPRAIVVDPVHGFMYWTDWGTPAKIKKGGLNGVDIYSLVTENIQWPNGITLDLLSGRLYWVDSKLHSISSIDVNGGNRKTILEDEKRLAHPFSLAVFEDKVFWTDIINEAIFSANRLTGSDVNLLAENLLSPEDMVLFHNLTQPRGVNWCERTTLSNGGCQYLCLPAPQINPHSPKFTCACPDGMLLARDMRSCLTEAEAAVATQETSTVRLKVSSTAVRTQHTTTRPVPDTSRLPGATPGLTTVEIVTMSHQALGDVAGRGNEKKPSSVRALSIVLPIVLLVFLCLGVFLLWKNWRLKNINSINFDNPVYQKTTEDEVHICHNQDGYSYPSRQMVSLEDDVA
Experiment: LDLR binding (SPR), high surfactant preparation
Settings: not given
Experimental: The table shown in FIG. 23 illustrates LDLR binding data (SPR), using a high surfactant preparation. Recombinant LDLR was diluted in 10 mM acetate buffer pH 4.5 and amine coupled to a CM5 chip at 1000 RU. Peptides were diluted to 5 μM in running buffer (HBS-P+, 1 mM CaCl2) and serially diluted 1:3 for 5 total concentrations. Peptides were exposed to immobilized LDLR at a rate of […] for 120 seconds. Between cycles, the chip surface was regenerated with 3 injections of 50 mM NaOH/100 mM EDTA. Multi-Cycle Kinetics was performed on a Biacore Insight Evaluation Software and binding kinetics were analyzed with a 1:1 binding model.

Molecule | Kd
WKDFGERVERALREQFEDLGQSTEELRVRLASHLRKLRKRLLRDADDLQKRLAVYQA [T-113] | < 10 µM
MEDVRGRLVQYRGEVQAMLGQSTEELRVRLASHLRKLRKRLLRDADDLQKRLAVYQA [T-068] | < 10 µM
DAWERFRALFKELADYFRLGQSTEELRVRLASHLRKLRKRLLRDADDLQKRLAVYQA [T-116] | < 10 µM
CC(C)C[C@H](NC(=O)[C@H](CCCNC(=N)N)NC(=O)[C@H](CC(=O)O)NC(=O)[C@H](CCC(N)=O)NC(=O)[C@H](CC(C)C)NC(=O)[C@H](CCCCN)NC(=O)[C@H](CC(=O)O)NC(=O)CNC(=O)[C@H](CC(=O)O)NC(=O)[C@H](CCCNC(=N)N)NC(=O)[C@H](CC(C)C)NC(=O)[C@H](CC(C)C)NC(=O)[C@H](CCCNC(=N)N)NC(=O)[C@H](CCCNC(=N)N)NC(=O)[C@H](CCCNC(=N)N)NC(=O)[C@H](CC(C)C)NC(=O)[C@H](CCCNC(=N)N)NC(=O)[C@H](CCCNC(=N)N)NC(=O)[C@H](CC(C)C)NC(=O)[C@@H](N)Cc1c[nH]cn1)C(=O)N[C@@H](C)C(=O)N[C@@H](CCC(=O)O)C(=O)N[C@@H](Cc1ccc(O)cc1)C(=O)N[C@@H](CCC(N)=O)C(=O)N[C@@H](C)C(=O)N[C@@H](CCCNC(=N)N)C(=O)N[C@@H](C)C(=O)N[C@@H](CCCCN)C(=O)N[C@@H](CCC(=O)O)C(=O)N[C@@H](C)C(=O)N[C@@H](Cc1ccccc1)C(=O)N[C@@H](CC(=O)O)C(=O)N[C@@H](CCCNC(=N)N)C(=O)O [T-041] (H-HLRRLRRRLLRDGDKLQDRLAEYQARAKEAFDR-OH) | < 10 µM

Same assay, conditions: high surfactant preparation (HBS-P+), 1:1 binding model; read-out: binding KD to LDLR

Kd | Molecule
< 10 µM | CC(C)C[C@H](NC(=O)[C@H](CCCNC(=N)N)NC(=O)[C@H](CC(=O)O)NC(=O)[C@H](CCC(N)=O)NC(=O)[C@H](CC(C)C)NC(=O)[C@H](CCCCN)NC(=O)[C@H](CC(=O)O)NC(=O)CNC(=O)[C@H](CC(=O)O)NC(=O)[C@H](CCCNC(=N)N)NC(=O)[C@H](CC(C)C)NC(=O)[C@H](CC(C)C)NC(=O)[C@H](CCCNC(=N)N)NC(=O)[C@H](CCCCN)NC(=O)[C@H](CCCNC(=N)N)NC(=O)[C@H](CC(C)C)NC(=O)[C@H](CCCCN)NC(=O)[C@H](CCCNC(=N)N)NC(=O)[C@H](CC(C)C)NC(=O)[C@@H](N)Cc1c[nH]cn1)C(=O)N[C@@H](C)C(=O)N[C@@H](CCC(=O)O)C(=O)N[C@@H](Cc1ccc(O)cc1)C(=O)N[C@@H](CCC(N)=O)C(=O)N[C@@H](C)C(=O)N[C@@H](CCCNC(=N)N)C(=O)N[C@@H](C)C(=O)N[C@@H](CCCCN)C(=O)N[C@@H](CCC(=O)O)C(=O)N[C@@H](C)C(=O)N[C@@H](Cc1ccccc1)C(=O)N[C@@H](CC(=O)O)C(=O)N[C@@H](CCCNC(=N)N)C(=O)O [T-040] (H-HLRKLRKRLLRDGDKLQDRLAEYQARAKEAFDR-OH)
< 10 µM | CSCC[C@H](NC(=O)[C@H](CC(C)C)NC(=O)[C@H](CC(=O)O)NC(=O)[C@H](CCCCN)NC(=O)CNC(=O)[C@H](Cc1ccc(O)cc1)NC(=O)[C@H](CC(=O)O)NC(=O)[C@@H](NC(=O)[C@@H](NC(=O)[C@@H](NC(=O)[C@H](CCC(N)=O)NC(=O)[C@H](Cc1ccccc1)NC(=O)[C@H](Cc1ccc(O)cc1)NC(=O)[C@H](CCC(N)=O)NC(=O)[C@H](CO)NC(=O)[C@@H](NC(=O)[C@H](CC(C)C)NC(=O)[C@H](CO)NC(=O)[C@H](CCCNC(=N)N)NC(=O)[C@H](C)NC(=O)[C@H](CC(C)C)NC(=O)[C@H](CCCNC(=N)N)NC(=O)[C@H](CCCCN)NC(=O)[C@H](CCCNC(=N)N)NC(=O)[C@H](CC(C)C)NC(=O)[C@H](CCCCN)NC(=O)[C@H](CCCNC(=N)N)NC(=O)[C@H](CC(C)C)NC(=O)[C@H](Cc1c[nH]cn1)NC(=O)[C@H](CCCNC(=N)N)NC(=O)[C@H](C)NC(=O)[C@@H](N)CC(C)C)C(C)C)[C@@H](C)O)C(C)C)[C@@H](C)O)C(=O)O [T-066] (H-LARHLRKLRKRLARSLVSQYFQTVTDYGKDLM-OH)
< 10 µM | CC(C)C[C@H](NC(=O)[C@H](CCCNC(=N)N)NC(=O)[C@H](CCCCN)NC(=O)[C@H](CCC(N)=O)NC(=O)[C@H](CC(C)C)NC(=O)[C@H](CC(=O)O)NC(=O)[C@H](CC(=O)O)NC(=O)[C@H](C)NC(=O)[C@H](CC(=O)O)NC(=O)[C@H](CCCNC(=N)N)NC(=O)[C@H](CC(C)C)NC(=O)[C@H](CC(C)C)NC(=O)[C@H](CCCNC(=N)N)NC(=O)[C@H](CCCCN)NC(=O)[C@H](CCCNC(=N)N)NC(=O)[C@H](CC(C)C)NC(=O)[C@H](CCCCN)NC(=O)[C@H](CCCNC(=N)N)NC(=O)[C@H](CC(C)C)NC(=O)[C@H](Cc1c[nH]cn1)NC(=O)[C@H](CO)NC(=O)[C@H](C)NC(=O)[C@@H](N)CC(C)C)C(=O)N[C@@H](C)C(=O)N[C@H](C(=O)N[C@@H](Cc1ccc(O)cc1)C(=O)N[C@@H](CCC(N)=O)C(=O)N[C@@H](C)C(=O)NCC(=O)N[C@@H](C)C(=O)N[C@@H](CCCNC(=N)N)C(=O)N[C@@H](CCC(=O)O)C(=O)NCC(=O)N[C@@H](C)C(=O)N[C@@H](CCC(=O)O)C(=O)N[C@@H](CCCNC(=N)N)C(=O)O)C(C)C [T-046]
< 10 µM | CC(C)C[C@H](NC(=O)[C@H](CCCNC(=N)N)NC(=O)[C@H](CC(=O)O)NC(=O)[C@H](CCC(N)=O)NC(=O)[C@H](CC(C)C)NC(=O)[C@H](CCCCN)NC(=O)[C@H](CC(=O)O)NC(=O)CNC(=O)[C@H](CC(=O)O)NC(=O)[C@H](CCCNC(=N)N)NC(=O)[C@H](CC(C)C)NC(=O)[C@H](CC(C)C)NC(=O)[C@H](CCCNC(=N)N)NC(=O)[C@H](CCCCN)NC(=O)[C@H](CCCNC(=N)N)NC(=O)[C@H](CC(C)C)NC(=O)[C@H](CCCCN)NC(=O)[C@H](CCCNC(=N)N)NC(=O)[C@H](CC(C)C)NC(=O)[C@@H](N)Cc1c[nH]cn1)C(=O)N[C@@H](C)C(=O)N[C@@H](CCC(=O)O)C(=O)N[C@@H](Cc1ccc(O)cc1)C(=O)N[C@@H](CCC(N)=O)C(=O)N[C@@H](C)C(=O)N[C@@H](CCCNC(=N)N)C(=O)N[C@@H](C)C(=O)N[C@@H](CCCNC(=N)N)C(=O)N[C@@H](CCC(=O)O)C(=O)N[C@@H](C)C(=O)N[C@@H](Cc1ccccc1)C(=O)N[C@@H](CC(=O)O)C(=O)N[C@@H](CCCNC(=N)N)C(=O)O [T-055] (H-HLRKLRKRLLRDGDKLQDRLAEYQARAREAFDR-OH)
< 10 µM | CC(C)C[C@H](NC(=O)[C@H](CCCNC(=N)N)NC(=O)[C@H](CCCCN)NC(=O)[C@H](CCC(N)=O)NC(=O)[C@H](CC(C)C)NC(=O)[C@H](CCCCN)NC(=O)[C@H](CC(=O)O)NC(=O)CNC(=O)[C@H](CC(=O)O)NC(=O)[C@H](CCCNC(=N)N)NC(=O)[C@H](CC(C)C)NC(=O)[C@H](CC(C)C)NC(=O)[C@H](CCCNC(=N)N)NC(=O)[C@H](CCCCN)NC(=O)[C@H](CCCNC(=N)N)NC(=O)[C@H](CC(C)C)NC(=O)[C@H](CCCCN)NC(=O)[C@H](CCCNC(=N)N)NC(=O)[C@H](CC(C)C)NC(=O)[C@@H](N)Cc1c[nH]cn1)C(=O)N[C@@H](C)C(=O)N[C@@H](CCC(=O)O)C(=O)N[C@@H](Cc1ccc(O)cc1)C(=O)N[C@@H](CCC(N)=O)C(=O)N[C@@H](C)C(=O)N[C@@H](CCCNC(=N)N)C(=O)N[C@@H](C)C(=O)N[C@@H](CCCCN)C(=O)N[C@@H](CCC(=O)O)C(=O)N[C@@H](C)C(=O)N[C@@H](Cc1ccccc1)C(=O)N[C@@H](CC(=O)O)C(=O)N[C@@H](CCCNC(=N)N)C(=O)O [T-052] (H-HLRKLRKRLLRDGDKLQKRLAEYQARAKEAFDR-OH)
< 10 µM | CC(C)C[C@H](NC(=O)[C@H](CCCNC(=N)N)NC(=O)[C@H](CCCCN)NC(=O)[C@H](CCC(N)=O)NC(=O)[C@H](CC(C)C)NC(=O)[C@H](CC(=O)O)NC(=O)[C@H](CC(=O)O)NC(=O)[C@H](C)NC(=O)[C@H](CC(=O)O)NC(=O)[C@H](CCCNC(=N)N)NC(=O)[C@H](CC(C)C)NC(=O)[C@H](CC(C)C)NC(=O)[C@H](CCCNC(=N)N)NC(=O)[C@H](CCCCN)NC(=O)[C@H](CCCNC(=N)N)NC(=O)[C@H](CC(C)C)NC(=O)[C@H](CCCCN)NC(=O)[C@H](CCCNC(=N)N)NC(=O)[C@H](CC(C)C)NC(=O)[C@@H](N)Cc1c[nH]cn1)C(=O)N[C@@H](C)C(=O)N[C@@H](CCC(=O)O)C(=O)N[C@@H](Cc1ccc(O)cc1)C(=O)N[C@@H](CCC(N)=O)C(=O)N[C@@H](C)C(=O)N[C@@H](CCCNC(=N)N)C(=O)N[C@@H](C)C(=O)N[C@@H](CCCCN)C(=O)N[C@@H](CCC(=O)O)C(=O)N[C@@H](C)C(=O)N[C@@H](Cc1ccccc1)C(=O)N[C@@H](CC(=O)O)C(=O)N[C@@H](CCCNC(=N)N)C(=O)O [T-064] (H-HLRKLRKRLLRDADDLQKRLAEYQARAKEAFDR-OH)
